In patent US11952361B1, “2-(1-(3-(dimethylamino)propyl)-4,5-diphenyl-1H-imidazol-2-yl) pyridin-3-ol as an antitumor and antimicrobial compound” (KING FAISAL UNIVERSITY, priority 2023, dated 2024):

Tests used:
[1] = test system: human prostate cancer cells (PC3); experiment: Cytotoxicity by SRB assay, PC3 cells; assay type: cell-based; conditions: 0.01 μM to 100 μM, 72 h
Procedure: (§1) The human prostate cancer cells (PC3) and human osteosarcoma cells (MG-63) were obtained from Nawah Scientific Inc. (Mokatam, Cairo, Egypt) and cultured in DMEM (Dulbecco's modified eagle's medium), Gibco, USA, supplemented with fetal bovine serum (FBS) at a concentration of 10% and […]. of penicillin and streptomycin (PS). The Cells were incubated at 37° C. in a humidified environment that contained 5% CO2.
(§2) Cells were seeded in 96-well plates as aliquots of 100 μL cell suspension and incubated in a complete media for 24 h. afterward, cells were treated with 2-(1-(3-(Dimethylanino)propyl)-4,5-diphenyl-1H-imidazol-2-yl)pyridin-3-ol at diverse concentrations ranging from 0.01 μM to 100 μM for 72 h. Then, cells were fixed at 4° C. for one hour with 150 μL of 10% trichloroacetic acid (TCA). After washing the cells five times with distilled water, 70 μL of sulforhodamine (SRB) solution (0.4% w/v) was added and incubated for 10 min at room temperature in a dark place. […] Then, 150 μL of Tris pH 10.5 (10 mM) was added, and the absorbance was measured at 540 nm using a BMG LABTECH®-FiLJOstar Omega microplate reader (Ortenberg, Germany). Half maximal inhibitory concentrations (IC50) values were calculated for each experiment using GraphPad Prism 6 software. […]
(§3) The inhibition was calculated using the following equation: Inhibition %=100−Average Viability

[2] = test system: human osteosarcoma cells (MG-63); experiment: Cytotoxicity by SRB assay, MG-63 cells; assay type: cell-based; conditions: 0.01 μM to 100 μM, 72 h
Procedure: as §1, §2, §3

- melting point: 133 to 135 °C
SMILES: CN(C)CCCn1c(-c2ncccc2O)nc(-c2ccccc2)c1-c1ccccc1 [2-(1-(3-(Dimethylamino)propyl)-4,5-diphenyl-1H-imidazol-2-yl)pyridin-3-ol]
- antiproliferative activity [1]: excellent antiproliferative activities
- antiproliferative activity [2]: excellent antiproliferative activities
